Laboratory results from patent publication US11459324B2, “O-glycoprotein-2-acetamido-2-deoxy-3-D-glycopyranosidase inhibitors” (BIOGEN MA INC., priority 2018, dated 2022).

biological target: T1, Recombinant full length human OGA enzyme (Homo sapiens, UniProt O60502); assay: OGA Enzyme Inhibition Biochemical Assay; conditions: 1 nM OGA, 100 μM 4-MUGlcNAc (Km), pH 6.4, 90 minutes at room temperature, 10-point dose-response from 20 μM
T1 construct: Recombinant full length human OGA enzyme was purchased from Origene; purchased Origene
T1 sequence (O60502 1-916): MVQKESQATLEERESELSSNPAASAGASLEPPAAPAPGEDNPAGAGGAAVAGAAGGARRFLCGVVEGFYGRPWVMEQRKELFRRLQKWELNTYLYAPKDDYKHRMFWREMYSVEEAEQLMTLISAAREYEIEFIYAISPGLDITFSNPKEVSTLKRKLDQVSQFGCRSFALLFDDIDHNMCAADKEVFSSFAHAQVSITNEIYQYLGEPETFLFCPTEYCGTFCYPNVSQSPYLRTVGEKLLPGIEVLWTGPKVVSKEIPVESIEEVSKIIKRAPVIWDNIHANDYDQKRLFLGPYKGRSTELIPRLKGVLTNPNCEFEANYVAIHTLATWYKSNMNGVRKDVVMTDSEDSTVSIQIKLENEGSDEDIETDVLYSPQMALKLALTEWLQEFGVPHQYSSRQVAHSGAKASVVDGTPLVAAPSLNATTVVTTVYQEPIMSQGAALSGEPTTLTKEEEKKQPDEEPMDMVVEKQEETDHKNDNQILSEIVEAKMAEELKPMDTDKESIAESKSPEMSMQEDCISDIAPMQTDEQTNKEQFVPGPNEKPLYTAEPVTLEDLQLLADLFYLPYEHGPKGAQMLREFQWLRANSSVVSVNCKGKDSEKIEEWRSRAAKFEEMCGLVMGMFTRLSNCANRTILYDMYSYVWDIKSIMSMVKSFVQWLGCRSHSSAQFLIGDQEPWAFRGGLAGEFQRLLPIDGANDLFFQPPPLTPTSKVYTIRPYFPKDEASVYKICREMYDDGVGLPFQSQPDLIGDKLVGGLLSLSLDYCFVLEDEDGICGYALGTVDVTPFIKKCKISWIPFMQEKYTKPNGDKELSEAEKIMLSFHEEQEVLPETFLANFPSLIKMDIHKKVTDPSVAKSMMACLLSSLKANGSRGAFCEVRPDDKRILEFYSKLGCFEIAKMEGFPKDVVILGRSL
Procedure, shortened: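 Full-length human OGA at 1 nM with 100 μM 4-MUGlcNAc (Km) in McIlvaine buffer pH 6.4 plus 0.01% BSA, 90 min at room temperature, then glycine pH 10 quench. Fluorescence read at Ex 355/Em 460 nm. 10-point, 4-fold dose-response from 20 μM, 4-parameter variable-slope fit.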

`CC(=O)Nc1ncc(CN2CCC(C(C)c3ncc(F)cn3)C2)s1` (stereo not drawn) [Example 2-36, N-(5-((3-(1-(5-fluoropyrimidin-2-yl)ethyl)pyrrolidin-1-yl)methyl)thiazol-2-yl)acetamide] and `CC(=O)Nc1nc(F)c(CN2CCC(C(C)c3ncc(F)cn3)C2)s1` (stereo not drawn) [Example 2-51, N-(4-fluoro-5-((3-(1-(5-fluoropyrimidin-2-yl)ethyl)pyrrolidin-1-yl)methyl)thiazol-2-yl)acetamide] are the same in IC50: 1 nM for the first, 1 nM for the second.

Going from `CC(=O)Nc1ncc(CN2CCCC(Cc3ncc(F)cn3)C2C)s1` (stereo not drawn) [Example 2-41, N-(5-((3-((5-fluoropyrimidin-2-yl)methyl)-2-methylpiperidin-1-yl)methyl)thiazol-2-yl)acetamide] to `CC(=O)Nc1ncc(CN2CCC(Cc3ncc(F)cn3)C2C)s1` (stereo not drawn) [Example 2-42, N-(5-((3-((5-fluoropyrimidin-2-yl)methyl)-2-methylpyrrolidin-1-yl)methyl)thiazol-2-yl)acetamide], the IC50 falls from 510 nM to 250 nM (2-fold). The second is the more potent here.

Compared with `CC(=O)Nc1ncc(CN2CC(Cc3ncc(F)cn3)CC[C@H]2C(F)(F)F)s1` (stereo partly drawn) [Example 2-49], `CC(=O)Nc1ncc(CN2CC(Cc3ncc(F)cn3)CC[C@@H]2C(F)(F)F)s1` (stereo partly drawn) [Example 2-50] is lower in IC50: greater than 20000 nM for the first, 270 nM for the second.

Going from `COc1cc(C(C)C2CCN(Cc3sc(NC(C)=O)nc3F)C2)ncn1` (stereo not drawn) [Example 2-52, N-(4-fluoro-5-((3-(1-(6-methoxypyrimidin-4-yl)ethyl)pyrrolidin-1-yl)methyl)thiazol-2-yl)acetamide] to `COc1cc(C[C@H]2CCCN(Cc3sc(NC(C)=O)nc3F)C2)ncn1` [Example 3-22, (R)-N-(4-fluoro-5-((3-((6-methoxypyrimidin-4-yl)methyl)piperidin-1-yl)methyl)thiazol-2-yl)acetamide], the IC50 falls from 1.7 nM to less than 1 nM.

`CC(=O)Nc1nc(F)c(CN2C[C@@H](Cc3ncc(F)cn3)CC[C@@H]2C)s1` [Example 2-53, N-(4-fluoro-5-(((2S,5R)-5-((5-fluoropyrimidin-2-yl)methyl)-2-methylpiperidin-1-yl)methyl)thiazol-2-yl)acetamide] and `CC(=O)Nc1nc(F)c(CN2CC[C@H](Cc3ncc(F)cn3)C2)s1` [Example 3-26, (R)-N-(4-fluoro-5-((3-((5-fluoropyrimidin-2-yl)methyl)pyrrolidin-1-yl)methyl)thiazol-2-yl)acetamide] are within 1.5-fold of each other in IC50: 9.2 nM for the first, 6.2 nM for the second.

Going from `CC(=O)Nc1ncc(CN2CCC[C@H](Cc3ncc(F)cn3)C2)s1` [Example 3-1, N-[5-[[(3R)-3-[(5-fluoropyrimidin-2-yl)methyl]-1-piperidyl]methyl]thiazol-2-yl]acetamide] to `CC(=O)Nc1ncc(CN2CCC[C@H](Cc3ncc(C(F)F)cn3)C2)s1` [Example 3-6, (R)-N-(5-((3-((5-(difluoromethyl)pyrimidin-2-yl)methyl)piperidin-1-yl)methyl)thiazol-2-yl)acetamide], the IC50 rises from 1 nM to 2 nM (2-fold). The first is the more potent here.

First: CC(=O)Nc1ncc(CN2CC(F)CC(Cc3ncc(F)cn3)C2)s1 (stereo not drawn) [Example 3-2, N-(5-((3-fluoro-5-((5-fluoropyrimidin-2-yl)methyl)piperidin-1-yl)methyl)thiazol-2-yl)acetamide]
Second: CC(=O)Nc1ncc(CN2CC(Cc3ncc(F)cn3)C(F)(F)C2)s1 (stereo not drawn) [Example 3-3, N-(5-((3,3-difluoro-4-((5-fluoropyrimidin-2-yl)methyl)pyrrolidin-1-yl)methyl)thiazol-2-yl)acetamide]
The IC50 of the first is 84-fold lower: 11 nM for the first, 920 nM for the second.

First: CC(=O)Nc1ncc(CN2CCC[C@H](Cc3ccnc(C)n3)C2)s1 [Example 3-4, (R)-N-(5-((3-((2-methylpyrimidin-4-yl)methyl)piperidin-1-yl)methyl)thiazol-2-yl)acetamide]
Second: CC(=O)Nc1ncc(CN2CC[C@H](Cc3nccc(C)n3)C2)s1 [Example 3-10, (R)-N-(5-((3-((4-methylpyrimidin-2-yl)methyl)pyrrolidin-1-yl)methyl)thiazol-2-yl)acetamide]
The IC50 of the first is lower: less than 1 nM for the first, 14 nM for the second. The first is the more potent here.

First: CC(=O)Nc1ncc(CN2CCC[C@H](Cc3ccc(C(F)F)cn3)C2)s1 [Example 3-5, (R)-N-(5-((3-((5-(difluoromethyl)pyridin-2-yl)methyl)piperidin-1-yl)methyl)thiazol-2-yl)acetamide]
Second: COc1cc(C[C@H]2CCCN(Cc3cnc(NC(C)=O)s3)C2)ncn1 [Example 3-23, (R)-N-(5-((3-((6-methoxypyrimidin-4-yl)methyl)piperidin-1-yl)methyl)thiazol-2-yl)acetamide]
The IC50 of the first is 1.5-fold higher: 2 nM for the first, 1.3 nM for the second.

Going from `CC(=O)Nc1ncc(CN2CCC[C@H](Cc3ncccn3)C2)s1` [Example 3-7, (R)-N-(5-((3-(pyrimidin-2-ylmethyl)piperidin-1-yl)methyl)thiazol-2-yl)acetamide] to `CC(=O)Nc1ncc(CN2CC[C@H](Cc3ncc(C)cn3)C2)s1` [Example 3-13, (R)-N-(5-((3-((5-methylpyrimidin-2-yl)methyl)pyrrolidin-1-yl)methyl)thiazol-2-yl)acetamide], the IC50 rises from 2 nM to 14 nM (7-fold).

Going from `COc1nc(C[C@H]2CCCN(Cc3cnc(NC(C)=O)s3)C2)nc(C)c1F` [Example 3-8, (R)-N-(5-((3-((5-fluoro-4-methoxy-6-methylpyrimidin-2-yl)methyl)piperidin-1-yl)methyl)thiazol-2-yl)acetamide] to `COc1nc(C[C@H]2CCN(Cc3cnc(NC(C)=O)s3)C2)nc(C)c1F` [Example 3-9, (R)-N-(5-((3-((5-fluoro-4-methoxy-6-methylpyrimidin-2-yl)methyl)pyrrolidin-1-yl)methyl)thiazol-2-yl)acetamide], the IC50 falls from 1 nM to less than 1 nM.

`CC(=O)Nc1ncc(CN2CC[C@H](Cc3ncc(F)c(C)n3)C2)s1` [Example 3-11, (R)-N-(5-((3-((5-fluoro-4-methylpyrimidin-2-yl)methyl)pyrrolidin-1-yl)methyl)thiazol-2-yl)acetamide] and `COc1ccnc(C[C@H]2CCN(Cc3cnc(NC(C)=O)s3)C2)n1` [Example 3-12, (R)-N-(5-((3-((4-methoxypyrimidin-2-yl)methyl)pyrrolidin-1-yl)methyl)thiazol-2-yl)acetamide] are within 1.5-fold of each other in IC50: 11 nM for the first, 9 nM for the second.

Going from `CC(=O)N(C)c1ncc(CN2CCC[C@H](Cc3ncc(F)cn3)C2)s1` [Example 3-16, N-[5-[[(3R)-3-[(5-fluoropyrimidin-2-yl)methyl]-1-piperidyl]methyl]thiazol-2-yl]-N-methyl-acetamide] to `CCC(=O)Nc1nc(F)c(CN2CCC[C@H](Cc3ncc(F)cn3)C2)s1` [Example 3-17, (R)-N-(4-fluoro-5-((3-((5-fluoropyrimidin-2-yl)methyl)piperidin-1-yl)methyl)thiazol-2-yl)propionamide], the IC50 falls from 19 nM to 1.2 nM (16-fold).

`CC(=O)Nc1nc(F)c(CN2CCC[C@H](Cc3ccnc(C)c3)C2)s1` [Example 3-18, (R)-N-(4-fluoro-5-((3-((2-methylpyridin-4-yl)methyl)piperidin-1-yl)methyl)thiazol-2-yl)acetamide] and `COc1cc(C[C@H]2CCCN(Cc3sc(NC(C)=O)nc3F)C2)ccn1` [Example 3-19, (R)-N-(4-fluoro-5-((3-((2-methoxypyridin-4-yl)methyl)piperidin-1-yl)methyl)thiazol-2-yl)acetamide] cannot be ordered by IC50: less than 1 nM for the first, less than 1 nM for the second.

`CC(=O)Nc1nc(F)c(CN2CCC[C@H](Cc3ccc(C)nc3)C2)s1` [Example 3-20, (R)-N-(4-fluoro-5-((3-((6-methylpyridin-3-yl)methyl)piperidin-1-yl)methyl)thiazol-2-yl)acetamide] and `CC(=O)Nc1nc(F)c(CN2CCC[C@H](Cc3cc(C)nc(C)c3)C2)s1` [Example 3-25, (R)-N-(5-((3-((2,6-dimethylpyridin-4-yl)methyl)piperidin-1-yl)methyl)-4-fluorothiazol-2-yl)acetamide] cannot be ordered by IC50: less than 1 nM for the first, less than 1 nM for the second.

`CC(=O)Nc1nc(F)c(CN2CCC[C@H](Cc3cc(C)nc(C)n3)C2)s1` [Example 3-21, (R)-N-(5-((3-((2,6-dimethylpyrimidin-4-yl)methyl)piperidin-1-yl)methyl)-4-fluorothiazol-2-yl)acetamide] and `CC(=O)Nc1nc(F)c(CN2CC[C@H](Cc3cc(C)nc(C)c3)C2)s1` [Example 3-24, (S)—N-(5-((3-((2,6-dimethylpyridin-4-yl)methyl)pyrrolidin-1-yl)methyl)-4-fluorothiazol-2-yl)acetamide] cannot be ordered by IC50: less than 1 nM for the first, less than 1 nM for the second.

`CCC(=O)Nc1nc(F)c(CN2CC[C@H](Cc3ncc(F)cn3)C2)s1` [Example 3-27, (R)-N-(4-fluoro-5-((3-((5-fluoropyrimidin-2-yl)methyl)pyrrolidin-1-yl)methyl)thiazol-2-yl)propionamide] gave an IC50 of 34 nM.
